Test system: hepatocytes
Test: Seq-Well scRNA-Seq of hepatocytes after APAP overdose (signature scores, DEG vs untreated)
Type: in vivo, mouse

CC(=O)Nc1ccc(O)cc1 [APAP, acetaminophen]
S100a9 pct.1 (A6): 0.399
Saa4 pct.1 (A6): 0.437
Sat1 pct.1 (A6): 0.47
Scp2 pct.1 (A6): 0.866
Sdc4 pct.1 (A6): 0.909
Sec1412 pct.1 (A6): 0.484
Selenbp2 pct.1 (A6): 0.609
Serpina1a pct.1 (A6): 0.914
Serpina3m pct.1 (A6): 0.85
Serpina3n pct.1 (A6): 0.747
Slc16a6 pct.1 (A6): 0.47
Slc22a1 pct.1 (A6): 0.36
Slc25a47 pct.1 (A6): 0.869
Slc39a14 pct.1 (A6): 0.678
Sod1 pct.1 (A6): 0.931
Sqstm1 pct.1 (A6): 0.859
Srgn pct.1 (A6): 0.284
Srxn1 pct.1 (A6): 0.821
St3gal1 pct.1 (A6): 0.473
St3gal5 pct.1 (A6): 0.706
Stat3 pct.1 (A6): 0.604
Stk40 pct.1 (A6): 0.382
Tiparp pct.1 (A6): 0.346
Tmem205 pct.1 (A6): 0.695
Tmsb4x pct.1 (A6): 0.332
Tnfrsf1a pct.1 (A6): 0.508
Tnfrsf12a pct.1 (A6): 0.623
Tra2a pct.1 (A6): 0.337
Trp53inp1 pct.1 (A6): 0.637
Ttc36 pct.1 (A6): 0.768
Ttr pct.1 (A6): 0.993
Tubb2a pct.1 (A6): 0.618
Tubb6 pct.1 (A6): 0.368
Txnrd1 pct.1 (A6): 0.838
Tyrobp pct.1 (A6): 0.189
Ubc pct.1 (A6): 0.573
Ugdh pct.1 (A6): 0.721
Ugt2b5 pct.1 (A6): 0.847
Ugt2b36 pct.1 (A6): 0.745
Uox pct.1 (A6): 0.905
Upp2 pct.1 (A6): 0.274
Uqcr11 pct.1 (A6): 0.606
Urah pct.1 (A6): 0.525
Wbp1l pct.1 (A6): 0.697
Xbp1 pct.1 (A6): 0.692
Ywhag pct.1 (A6): 0.518
mmu-mir-6240 pct.1 (A6): 0.413
mt-Co2 pct.1 (A6): 0.2
mt-Nd1 pct.1 (A6): 0.983
mt-Nd4 pct.1 (A6): 0.964
n-R5-8s1 pct.1 (A6): 0.308
2-Mar avg_logFC (A6 vs UT): −0.5599
0610005C13Rik avg_logFC (A6 vs UT): −0.4251
0610005C13Rik pct.1 (A6 vs UT): 0.427
0610007P14Rik A6logFC (A6 vs UT): −0.257
1110001J03Rik avg_logFC (A6 vs UT): −0.4328
1110001J03Rik pct.1 (A6 vs UT): 0.215
1110058L19Rik A6logFC (A6 vs UT): −0.2581
1500011K16Rik avg_logFC (A6 vs UT): −0.3296
1500011K16Rik pct.1 (A6 vs UT): 0.095
1600014C10Rik avg_logFC (A6 vs UT): −0.4982
1600014C10Rik pct.1 (A6 vs UT): 0.167
1700017B05Rik avg_logFC (A6 vs UT): 0.3307
1700017B05Rik pct.1 (A6 vs UT): 0.255
2010003K11Rik avg_logFC (A6 vs UT): 0.5884
2410015M20Rik avg_logFC (A6 vs UT): −0.4021
2410015M20Rik pct.1 (A6 vs UT): 0.344
2810007J24Rik avg_logFC (A6 vs UT): −0.9143
2810428I15Rik avg_logFC (A6 vs UT): −0.2631
2810428I15Rik pct.1 (A6 vs UT): 0.2
4931406C07Rik A6logFC (A6 vs UT): −0.2544
4931406C07Rik avg_logFC (A6 vs UT): −0.2544
4931406C07Rik pct.1 (A6 vs UT): 0.616
4932438A13Rik A6logFC (A6 vs UT): 0.2879
4932438A13Rik avg_logFC (A6 vs UT): 0.2879
4932438A13Rik pct.1 (A6 vs UT): 0.329
8430408G22Rik avg_logFC (A6 vs UT): −0.5021
2810428115Rik A6logFC (A6 vs UT): −0.2631
Aadac avg_logFC (A6 vs UT): −0.62
Aadat A6logFC (A6 vs UT): −0.3186
Aass avg_logFC (A6 vs UT): 0.4775
Abca1 avg_logFC (A6 vs UT): 0.7245
Abcb11 A6logFC (A6 vs UT): −0.2618
Abcb11 avg_logFC (A6 vs UT): −0.2618
Abcb11 pct.1 (A6 vs UT): 0.618
Abcc2 A6logFC (A6 vs UT): 0.2897
Abcd3 A6logFC (A6 vs UT): −0.2718
Abce1 A6logFC (A6 vs UT): 0.28
Abce1 avg_logFC (A6 vs UT): 0.28
Abce1 pct.1 (A6 vs UT): 0.437
Abcf1 A6logFC (A6 vs UT): 0.3032
Abcf1 avg_logFC (A6 vs UT): 0.3032
Abcf1 pct.1 (A6 vs UT): 0.458
Abcg2 A6logFC (A6 vs UT): −0.2809
Abcg2 avg_logFC (A6 vs UT): −0.2809
Abcg2 pct.1 (A6 vs UT): 0.294
Abhd2 avg_logFC (A6 vs UT): 0.4844
Acaa1a A6logFC (A6 vs UT): −0.3018
Acaa1a avg_logFC (A6 vs UT): −0.3018
Acaa1a pct.1 (A6 vs UT): 0.475
Acaa1b avg_logFC (A6 vs UT): −0.7328
Acads A6logFC (A6 vs UT): −0.3242
Acat3 A6logFC (A6 vs UT): −0.3115
Acat3 avg_logFC (A6 vs UT): −0.3115
Acat3 pct.1 (A6 vs UT): 0.427
Acot13 A6logFC (A6 vs UT): −0.2886
Acsl1 avg_logFC (A6 vs UT): −0.3434
Acsl1 pct.1 (A6 vs UT): 0.752
Acsl4 avg_logFC (A6 vs UT): 0.2985
Acsl4 pct.1 (A6 vs UT): 0.427
Acsm1 avg_logFC (A6 vs UT): −0.3692
Acsm1 pct.1 (A6 vs UT): 0.527
Acsm5 A6logFC (A6 vs UT): −0.2614
Acsm5 avg_logFC (A6 vs UT): −0.2614
Acsm5 pct.1 (A6 vs UT): 0.236
Actr3 A6logFC (A6 vs UT): 0.276
Actr3 avg_logFC (A6 vs UT): 0.276
Actr3 pct.1 (A6 vs UT): 0.36
Acy3 avg_logFC (A6 vs UT): −0.3137
Acy3 pct.1 (A6 vs UT): 0.131
Adamts1 avg_logFC (A6 vs UT): 0.2826
Adamts1 pct.1 (A6 vs UT): 0.2
Adck3 avg_logFC (A6 vs UT): −0.8761
Adh1 avg_logFC (A6 vs UT): −1.255
Adh4 avg_logFC (A6 vs UT): −0.5269
Adh5 avg_logFC (A6 vs UT): −0.4914
Adh5 pct.1 (A6 vs UT): 0.649
Adipor2 avg_logFC (A6 vs UT): −0.4738
Adipor2 pct.1 (A6 vs UT): 0.578
Aes A6logFC (A6 vs UT): −0.2642
Aes avg_logFC (A6 vs UT): −0.2642
Aes pct.1 (A6 vs UT): 0.535
Aff4 avg_logFC (A6 vs UT): 0.6163
Aff4 pct.1 (A6 vs UT): 0.537
Agmat avg_logFC (A6 vs UT): −0.4718
Agmat pct.1 (A6 vs UT): 0.339
Agpat2 A6logFC (A6 vs UT): −0.2982
Agpat9 avg_logFC (A6 vs UT): 0.327
Agxt A6logFC (A6 vs UT): −0.2584
Agxt avg_logFC (A6 vs UT): −0.2584
Agxt pct.1 (A6 vs UT): 0.601
Akap13 avg_logFC (A6 vs UT): 0.4953
Akap13 pct.1 (A6 vs UT): 0.406
Akr1c6 avg_logFC (A6 vs UT): −1.586
Akr1c14 avg_logFC (A6 vs UT): −0.5186
Akr1c14 pct.1 (A6 vs UT): 0.413
Akr1c20 avg_logFC (A6 vs UT): −0.5542
Akr1d1 avg_logFC (A6 vs UT): −0.2789
Akr1d1 pct.1 (A6 vs UT): 0.332
Akr1e1 A6logFC (A6 vs UT): −0.2582
Alad avg_logFC (A6 vs UT): −0.4206
Alad pct.1 (A6 vs UT): 0.286
Alb avg_logFC (A6 vs UT): 0.4203
Alcam A6logFC (A6 vs UT): 0.3238
Alcam avg_logFC (A6 vs UT): 0.3238
Alcam pct.1 (A6 vs UT): 0.396
Aldh1a1 avg_logFC (A6 vs UT): −0.4788
Aldh3a2 avg_logFC (A6 vs UT): −0.8342
Aldh4a1 A6logFC (A6 vs UT): −0.2907
Aldh4a1 avg_logFC (A6 vs UT): −0.2907
Aldh4a1 pct.1 (A6 vs UT): 0.425
Aldh8a1 avg_logFC (A6 vs UT): −0.6837
Aldob avg_logFC (A6 vs UT): 0.3153
Aldob pct.1 (A6 vs UT): 0.998
Amacr avg_logFC (A6 vs UT): −0.4136
Amacr pct.1 (A6 vs UT): 0.294
Anapc13 A6logFC (A6 vs UT): −0.3642
Ang avg_logFC (A6 vs UT): −0.6629
Anxa5 A6logFC (A6 vs UT): 0.3654
Apoa2 avg_logFC (A6 vs UT): −0.5428
Apoa4 avg_logFC (A6 vs UT): 1.368
Apob avg_logFC (A6 vs UT): 0.5802
Apobec1 avg_logFC (A6 vs UT): 0.3051
Apobec1 pct.1 (A6 vs UT): 0.239
Apoc1 avg_logFC (A6 vs UT): −0.8713
Apoc3 avg_logFC (A6 vs UT): −0.7688
Apoe avg_logFC (A6 vs UT): −0.369
Apof A6logFC (A6 vs UT): −0.2522
Apof avg_logFC (A6 vs UT): −0.2522
Apof pct.1 (A6 vs UT): 0.759
Apoh avg_logFC (A6 vs UT): −0.2623
Apoh pct.1 (A6 vs UT): 0.924
Apol7a avg_logFC (A6 vs UT): −0.4923
App avg_logFC (A6 vs UT): 0.3618
App pct.1 (A6 vs UT): 0.315
Aqp9 A6logFC (A6 vs UT): −0.3109
Arg1 avg_logFC (A6 vs UT): 0.3179
Arg1 pct.1 (A6 vs UT): 0.983
Arhgap5 avg_logFC (A6 vs UT): 0.264
Arhgap5 pct.1 (A6 vs UT): 0.506
Arhgdia A6logFC (A6 vs UT): 0.2563
Arhgdia avg_logFC (A6 vs UT): 0.2563
Arhgdia pct.1 (A6 vs UT): 0.317
Arhgef12 avg_logFC (A6 vs UT): 0.5908
Arl4d avg_logFC (A6 vs UT): −0.5072
Arpc1b A6logFC (A6 vs UT): 0.2597
Arpc1b avg_logFC (A6 vs UT): 0.2597
Arpc1b pct.1 (A6 vs UT): 0.263
Asgr1 avg_logFC (A6 vs UT): −0.3857
Asgr1 pct.1 (A6 vs UT): 0.656
Ash1l avg_logFC (A6 vs UT): 0.2657
Ash1l pct.1 (A6 vs UT): 0.301

Reference: patent publication US20230053540A1, “TREATMENT OF LIVER INJURY” (Massachusetts Institute of Technology, priority 2019, published 2023)
